According to patent publication US9017692B2, “Antimicrobial agent, bacterial strain, biosynthesis, and methods of use” (priority 2011, dated 2015):

Tests used:
[1] = system: E. coli O157:H7 ATCC 43889; experiment: Spot-on-lawn antimicrobial activity; format: cell-based, Escherichia coli; settings: broth medium LB
Procedure: (§1) Spot-on-lawn method [He, Z., et al., Appl. Environ. Microbiol., (2007) 73:168-178] was used for the bioassay of antimicrobial activity. Bacterial indicators were incubated at 37° C. for 24 h, except Pseudomonas putida, Clostridium difficile and methycillin resistant Staphylococcus aureus which were incubated for 48 h (Table 1). The indicator overlay was prepared by pouring 10 ml soft agar (seeded with 10 μL indicator culture) onto tryptose agar as basal medium in a petri dish. Purified antimicrobials were two-fold serially diluted and aliquots (10 μL each) were spotted onto the soft agar. The plates were incubated overnight and inspected for the presence of growth inhibition zones. Antimicrobial activity was expressed in arbitrary units (AU)/mL; this value is the reciprocal of the highest dilution displaying a zone of inhibition corresponding to 1 mL of the non-diluted antimicrobial preparation.
(§2) Purified paenibacterin was used for the antimicrobial spectrum test. Microorganisms tested for sensitivity to this compound included pathogenic (e.g., Salmonella Typhimurium, Escherichia coli O157:H7, Listeria monocytogenes, and Staphylococcus aureus) and non-pathogenic (e.g., Escherichia coli K-12, Pseudomonas putida, and Enterococcus faecalis) bacteria (Table 1).

E. coli O157:H7 EDL 933 = experiment: Spot-on-lawn antimicrobial activity; format: cell-based, Escherichia coli; settings: broth medium LB
Procedure: as §1, §2

C. difficile CL148 = experiment: Spot-on-lawn antimicrobial activity; format: cell-based, Clostridium difficile; settings: BHIYE
Procedure: as §1, §2

L. monocytogenes = experiment: Antimicrobial spectrum test; format: cell-based, Listeria monocytogenes; settings: gram-positive pathogens such as L. monocytogenes
Procedure: as §1, §2

Streptococcus pneumoniae = experiment: MIC, summary of Table 13; format: cell-based; settings: NBS plates
Procedure: (§3) The activity of paenibacterin against several strains of Gram-positive and Gram-negative foodborne pathogens is summarized in Table 10. The data is reported as minimum inhibitory concentrations (MIC) as an average of three replicates for paenibacterin against the various listed bacterial strains. […] MICs were determined according to the CLSI broth microdilution method (see, Clinical and Laboratory Standards Institute (CLSI). 2009. Methods for dilution antimicrobial susceptibility tests for bacteria that grow aerobically; approved standard. […]. CLSI, Wayne, Pa.). Briefly, HPLC-purified paenibacterin was dissolved in methanol and diluted to appropriate concentration with cation-adjusted Mueller-Hinton II broth (Difco). Aliquots (25 μl) of serially-diluted paenibacterin was dispensed into wells of a 96-well plate; an equal amount of 1/10 diluted overnight bacterial culture was added to wells. Plates were incubated at 35° C. for 24 h. Cell growth after incubation was examined and determined using a microtiter plate reader at 600 nm. Concentration of paenibacterin is determined based on a molecular weight of 1604 Da.
(§4) The activity of paenibacterin was further tested against clinical isolates of the following Gram-positive bacteria: methicillin-sensitive Staphylococcus aureus (MSSA), methicillin-resistant S. aureus (MRSA), vancomycin-sensitive Enterococcus faecalis, vancomycin-resistant E. faecalis (VRE), Streptococcus pneumoniae, and laboratory derived daptomycin-resistant (DR) MSSA, MRSA, and VRE strains. The MICs were determined using the above described CLSI broth microdilution method, in which the method was performed with non-binding surface coated (NBS) 96-well plates.

Enterococcus faecalis = experiment: MIC, summary of Table 13; format: cell-based; settings: Enterococcus faecalis strains of Table 13; NBS plates
Procedure: as §3, §4

Staphylococcus aureus = experiment: MIC, summary of Table 13; format: cell-based; settings: Staphylococcus aureus strains of Table 13; NBS plates
Procedure: as §3, §4

[2] = system: polymyxin B-resistant and polymyxin B-sensitive strains of Acinetobacter baumannii; experiment: MIC, Table 11; format: cell-based; settings: Table 11 (NBS plates)
Procedure: (§5) Plates were incubated at 35° C. for 24 h.
(§6) The activity of paenibacterin was also tested against clinical isolates of the following Gram-negative bacterial strains: four strains of the species Pseudomonas aeruginosa (PAE), three strains of the species Acinetobacter baumannii (ABA), two strains of the species Escherichia coli (ECO), and four strains of the species Klebsiella pneumoniae (KPN). Particularly, the strains of Gram-negative bacteria included polymyxin B-resistant (PMB-R) and polymyxin B-sensitive (PMB-S) strains of each above listed species. The MICs were determined using the above described CLSI broth microdilution method, in which the method was performed with both non-binding surface coated (NBS) and polystyrene (PS) 96-well plates (Tables 11 and 12, respectively). The MICs were generally lower in the NBS 96-well plates as compared to the PS 96-well plates.

[3] = system: polymixin B-sensitive strains of Pseudomonas aeruginosa; experiment: MIC, Table 11; format: cell-based; settings: NBS plates
Procedure: as §5, §6

[4] = system: polymixin B-sensitive strains of Escherichia coli; experiment: MIC, Table 11; format: cell-based; settings: NBS plates
Procedure: as §5, §6

[5] = system: polymixin B-sensitive strains of Klebsiella pneumoniae; experiment: MIC, Table 11; format: cell-based; settings: NBS plates
Procedure: as §5, §6

PAE.2325 = experiment: MIC, CLSI broth microdilution, Gram-negative clinical isolates; format: cell-based, Pseudomonas aeruginosa
Procedure: as §5, §6

[6] = system: S. enterica ser. Enteritidis; experiment: Spot-on-lawn antimicrobial activity; format: cell-based, Salmonella enterica; settings: TSBYE
Procedure: as §1, §2

[7] = system: S. enterica ser. Typhimurium DT 109; experiment: Spot-on-lawn antimicrobial activity; format: cell-based, Salmonella enterica; settings: TSBYE
Procedure: as §1, §2

B. cereus ATCC 11178 = experiment: Spot-on-lawn antimicrobial activity; format: cell-based, Bacillus cereus; settings: TSBYE
Procedure: as §1, §2

[8] = system: Bacillus cereus ATCC14579; experiment: MIC, CLSI broth microdilution, foodborne pathogens; format: cell-based
Procedure: as §5

[9] = system: Listeria monocytogenes Scott A; experiment: MIC, CLSI broth microdilution, foodborne pathogens; format: cell-based
Procedure: as §5

[10] = system: Escherichia coli O157:H7 EDL933; experiment: MIC, CLSI broth microdilution, foodborne pathogens; format: cell-based
Procedure: as §5

Yersinia enterocolitica = experiment: MIC, CLSI broth microdilution, foodborne pathogens; format: cell-based
Procedure: as §5

[11] = system: S. aureus (methycillin-resistant); experiment: Spot-on-lawn antimicrobial activity; format: cell-based, Staphylococcus aureus; settings: TSBYE
Procedure: as §1, §2

ATCC 25922 ECO.35 = experiment: MIC, CLSI broth microdilution, Gram-negative clinical isolates; format: cell-based, Escherichia coli
Procedure: as §5, §6

ECO.2276 = experiment: as above; format: cell-based, Escherichia coli
Procedure: as §5, §6

[12] = system: L. monocytogenes OSY-8578; experiment: Spot-on-lawn antimicrobial activity; format: cell-based, Listeria monocytogenes; settings: TSBYE
Procedure: as §1, §2

[13] = based on molecular weight of 1604 Da

paenibacterin
Antimicrobial activity (AU/ml) [1]: 1600 AU/ml | Antimicrobial activity (AU/ml) (E. coli O157:H7 EDL 933): 1600 AU/ml | Antimicrobial activity (AU/ml) (C. difficile CL148): 0 AU/ml | Antimicrobial activity (AU/ml) (C. difficile CL148; listed as Paenibacterin): no activity | Antimicrobial activity (in words) (L. monocytogenes): good activity | MIC (Streptococcus pneumoniae): 32 to 64 µg/mL | MIC (Enterococcus faecalis): 32 to 64 µg/mL | MIC (Staphylococcus aureus): 32 to 64 µg/mL | MIC [2]: 2 µg/mL | MIC [3]: 8 µg/mL | MIC [4]: 8 µg/mL | MIC [5]: 8 µg/mL | Minimum inhibitory concentration (MIC) (PAE.2325; NBS 96-well plates): 16 µg/mL | Minimum inhibitory concentration (MIC) (PAE.2325; PS 96-well plates): 64 µg/mL | Antimicrobial activity (AU/ml) [6]: 800 AU/ml | Antimicrobial activity (AU/ml) [7]: 400 AU/ml | Antimicrobial activity (AU/ml) (B. cereus ATCC 11178): 200 AU/ml | Minimum inhibitory concentration (MIC) Average ([8]; average of three replicates): 15.6 µg/mL | Minimum inhibitory concentration (MIC) Average [8, 13]: 9.74 µM | Minimum inhibitory concentration (MIC) Average ([9]; average of three replicates): 1.95 µg/mL | Minimum inhibitory concentration (MIC) Average [9, 13]: 1.22 µM | Minimum inhibitory concentration (MIC) Average ([10]; average of three replicates): 7.81 µg/mL | Minimum inhibitory concentration (MIC) Average [10, 13]: 4.87 µM | Minimum inhibitory concentration (MIC) Average (Yersinia enterocolitica; average of three replicates): 3.26 µg/mL | Minimum inhibitory concentration (MIC) Average (Yersinia enterocolitica; [13]): 2.03 µM | Antimicrobial activity (AU/ml) [11]: 100 AU/ml | Minimum inhibitory concentration (MIC) (ATCC 25922 ECO.35; ECO.35 (ATCC 25922), NBS 96-well plates): 8 µg/mL | Minimum inhibitory concentration (MIC) (ATCC 25922 ECO.35; ECO.35, PS 96-well plates): 16 µg/mL | Minimum inhibitory concentration (MIC) (ECO.2276; NBS 96-well plates): 8 µg/mL | Minimum inhibitory concentration (MIC) (ECO.2276; PS 96-well plates): 16 µg/mL | Antimicrobial activity (AU/ml) [12]: 1600 AU/ml
